# In patent publication US4256729A, “N,N'-Bis-(2,3-dihydroxypr opyl)-2,4,6-triiodo-5-(2-keto-L-gulonamido)isophthalamide and radiological compositions containing same” (Mallinckrodt, Inc., priority 1979, dated 1981):
# Where two headings read alike, the source gives them in different places.
# Legend:
# [1] = system: Swiss mice; assay: Acute Intracerebral Toxicity in Mice; conditions: intracerebral, 250-400 mg I/ml; seven day observation; 95% limits 1,203-1,772
# Method: (§1) The following pharmacological studies were conducted on N,N'-bis-(2,3-dihydroxypropyl)-2,4,6-triiodo-5-(2-keto-L-gulonamido)isophthalamide prepared by Method II (PRODUCT).
# (§2) Employing a slightly modified version of the techique developed by Haley and McCormick (Brit. J. Pharmacol. 12: 12-15, 1957), young adult male and female Swiss mice received injections of a solution of the PRODUCT directly into lateral ventricles and brain tissue.
# [2] = in vivo; conditions: mouse, in vivo, icv or intrathecal
# Method: as §1, §2
# [3] = system: Swiss mice; assay: Acute Intraveneous Toxicity in Mice; conditions: i.v., 1 ml/min, 400 mg I/ml; seven day observation; 95% limits 18,161-20,510
# Method: as §1
# (§3) A solution of the PRODUCT was injected into the lateral tail vein of young adult male and female Swiss mice at a rate of 1 ml/min.
# [4] = in vivo; conditions: mouse, in vivo, iv
# Method: as §1, §3
# [5] = system: Sprague Dawley rats; assay: Acute Intracisternal Toxicity in Rats; conditions: intracisternal, 444 mg I/ml; two day observation; 95% limits 582-951
# Method: as §1
# (§4) The technique described by Melartin et al. (Invest. Radiol. 5: 13-21, 1970) was utilized to evaluate lethal effects of a solution of the PRODUCT after injection into cerebrospinal fluid at the cisterna magna. Young adult male and female Sprague Dawley rats were used. After dosing, the animals were housed individually and observed for immediate reactions and periodically for a two day observation period.
# [6] = in vivo; conditions: rat, in vivo
# Method: as §1, §4
# [7] = Solubility in water; type: physicochemical
# Method: (§5) The product was dissolved in water (sterile water for injection, 1 liter). The solution was evaporated to about 800 ml under reduced pressure at 55° and treated with active charcoal (Darco G-60, 7.0 g) at room temperature overnight. The solution was filtered (first through a Whatman #4 filter paper and then through a Millipore 0.22 μ filter paper), and the clear filtrate was evaporated under reduced pressure at 50°-60° to give a white glassy solid. The product, which was dried under vacuum at 50°-60° for 5 hours, weighed 53.0 g (60% yield). The compound softens at 190°-195° and decomposes above 220°. […] Nmr and ir data are consistent with the assigned structure IX. Elemental analysis: Calcd. for C20 H26 I3 N3 O12 : C, 27.26; H, 2.97; I, 43.21; N, 4.77; Found: C, 26.92; H, 3.15; I, 42.92; N, 4.40.
# 2. Solubility: ≥100% w/v.
# [8] = system: dogs; assay: Acute intracisternal Neurotoxicity in Dogs; type: in vivo; conditions: dosage range 200-244 mg I/kg, constant 0.5 ml/kg volume dose
# Method: Adult dogs of either sex were employed for this procedure and were briefly anesthetized with thiopentol sodium during the injection of a solution of the compound. The PRODUCT was administered into cerebrospinal fluid at the cisterna magna at varying concentrations but at a constant 0.5 ml/kg volume dose. Animals were thereafter observed for neurotoxicity with the following results.
# [9] = system: cisterna magna, basal cisterns, and cervical subarachnoid space; assay: Radiographic observations in rat (lateral radiographs of head and thorax after intracisternal injection); type: in vivo; conditions: male rat, pentobarbital anesthetized; 140 mg I/kg intracisternally (28% I solution); immediately and 3 minutes after administration; Method I product
# Method: A pentobarbital anesthetized male rat received 140 mg I/kg of the N,N'-bis-(2,3-dihydroxypropyl)-2,4,6-triiodo-5-(2-keto-L-gulonamido)isophthalamide prepared by Method I, (28% I solution) intracisternally.
# [10] = system: cardiovascular and renal excretory systems; assay: Radiographic observations in mouse (whole body radiographs after i.v. injection); type: in vivo; conditions: male mouse, pentobarbital anesthetized; 10,000 mg I/kg i.v. (28% I solution), 1/2 ml/minute; immediately after administration; Method I product
# Method: A male mouse (20 g) was anesthetized with sodium pentobarbital (60 mg/kg, i.p.; Diabutal®, Diamond Laboratories).
# [11] = Stability in aqueous solution by tlc and lc analysis; type: physicochemical; conditions: Method I product
# Method: as §5
structure (smiles),measurement,setting,value
"O=C(Nc1c(I)c(C(=O)NCC(O)CO)c(I)c(C(=O)NCC(O)CO)c1I)C(=O)[C@@H](O)[C@H](O)[C@@H](O)CO (stereo partly drawn) [IX, N,N'-Bis-(2,3-dihydroxypropyl)-2,4,6-triiodo-5-(2-keto-L-gulonamido)isophthalamide]",LD50 /(95% Confidence Limits),[1],"1,460 mg I/kg"
same,LD50 at 168 h,[2],3380 mg/kg
same,LD50 /(95% Confidence Limits),[3],"19,300 mg I/kg"
same,LD50 at 168 h,[4],44700 mg/kg
same,LD50 /(95% Confidence Limits),[5],744 mg I/kg
same,LD50 at 48 h,[6],1720 mg/kg
same,solubility,[7]; Method II product,≥ 100 % w/v
same,solubility,"[7]; water, Method I product, read-out: solubility in water",≥ 1000 mg/mL
same,Minimum Convulsion Dose,[8],> 244 mg I/kg
same,visualization on lateral radiographs of head and thorax,[9],"good visualization of the cisterna magna, basal cisterns, and cervical subarachnoid space"
same,opacification on whole body radiographs,[10],opacification of the cardiovascular and renal excretory systems
same,stability in aqueous solution,[11],stable in aqueous solution
